Active and inactive are the calls of the source. The rule behind the calls is not given here.
test: Antiestrogenic activity in human MCF7/BUS cells assessed as inhibition of 17beta-estradiol-induced cell proliferation at 10 uM after 6 days by E-Screen test; type: functional, cell-based

Row | SMILES | Activity
1 | C=C(C)[C@@H]1Cc2c(c(OC)c3occ(C)c3c2OC)O1 | inactive
2 | COc1cc(O)c(CC=C(C)C)c(O)c1C(C)=O | inactive
3 | COc1ccc(-c2oc3cc(O)cc(O)c3c(=O)c2O)cc1O | inactive
4 | C=C(C)[C@@H]1Cc2c(c(OC)c(O)c(C(C)=O)c2OC)O1 | inactive
5 | O=C1CC(c2ccc(O)c(O)c2)Oc2cc(O)cc(O)c21 (configuration not stated) | inactive
6 | COc1cc(OC)c2c(c1)O/C(=C\c1ccc(OC)c(OC)c1)C2=O | inactive
7 | COc1cc(OC)c2c(c1)O/C(=C\c1ccc(OC)c(O)c1)C2=O | inactive

Source: ChEMBL document CHEMBL1799912, “Benzodihydrofurans from Cyperus teneriffae” (J Nat Prod, 2011)
